Test results published in PMC12311865, “In Vitro Evaluation of the Potential Interactions of Zearalenone-14-sulfate and Zearalenone-14-glucuronide with Human Cytochrome P450 Enzymes, Organic Anion Transporting Polypeptides, and ATP-Binding Cassette Multidrug Transporters” (ACS Omega, 2025).
Like-named read-outs stand apart in the source and are kept apart here.

What was measured:
[1] = target: T1, OATP1B1 (Homo sapiens, UniProt Q9Y6L6); assay: OATP1B1-mediated pyranine uptake in overexpressing A431 cells; type: cell-based
T1 construct: expressed in transfected cells; host or cells: A431
T1 sequence (Q9Y6L6 1-691): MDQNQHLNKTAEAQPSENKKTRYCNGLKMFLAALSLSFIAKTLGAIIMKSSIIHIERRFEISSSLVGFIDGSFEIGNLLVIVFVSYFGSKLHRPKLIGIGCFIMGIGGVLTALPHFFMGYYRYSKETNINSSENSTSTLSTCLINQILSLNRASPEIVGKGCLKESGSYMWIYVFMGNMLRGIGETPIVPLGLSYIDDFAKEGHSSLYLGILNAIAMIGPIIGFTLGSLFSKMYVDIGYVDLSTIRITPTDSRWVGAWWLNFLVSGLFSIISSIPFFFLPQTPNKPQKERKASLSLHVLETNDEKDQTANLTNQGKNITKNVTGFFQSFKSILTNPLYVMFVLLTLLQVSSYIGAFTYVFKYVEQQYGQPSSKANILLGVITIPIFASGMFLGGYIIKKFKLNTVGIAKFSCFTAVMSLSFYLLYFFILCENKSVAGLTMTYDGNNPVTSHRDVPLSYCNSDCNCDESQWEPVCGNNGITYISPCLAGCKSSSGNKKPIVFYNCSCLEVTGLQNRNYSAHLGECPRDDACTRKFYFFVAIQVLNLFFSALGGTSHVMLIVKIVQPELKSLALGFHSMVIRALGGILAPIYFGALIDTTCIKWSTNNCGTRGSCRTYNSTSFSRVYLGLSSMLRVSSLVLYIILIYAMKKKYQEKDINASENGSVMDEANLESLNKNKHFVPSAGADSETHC
Procedure: (§1) The human epidermoid carcinoma cell (A431) overexpressing OATP1A2, OATP1B1, OATP1B3, or OATP2B1 transporters and their mock control cells were generated previously as described. , Cell culture was maintained in DMEM supplemented with 10% fetal bovine serum, 2 mM L-glutamine, 100 units/mL penicillin, and 100 μg/mL streptomycin at 37 °C and 5% CO2.
(§2) The inhibitory effects of mycotoxins (Z14S and Z14GA) were examined using indirect fluorescence assays, where pyranine and SR101 were used as fluorescent substrates. , A431 cells overexpressing OATP1A2, OATP1B1/3, or OATP2B1 and their mock-transfected controls were seeded at a density of 8 × 10^4 cells/well onto 96-well plates and incubated for 18–22 h prior to transport measurements. The next day, plated cells were washed three times with 200 μL of PBS (phosphate-buffered saline, pH 7.4) and preincubated with 50 μL of transport buffer (pH 5.5; 125 mM NaCl, 4.8 mM KCl, 1.2 mM CaCl2, 1.2 mM KH2PO4, 12 mM MgSO4, 25 mM MES, and 5.6 mM glucose) with or without increasing concentrations of the mycotoxins tested (0.001–20 μM) for 5 min at 37 °C. The transport inhibition measurements were initiated by adding 50 μL of transport buffer containing the proper fluorescent substrate SR101 (0.5 μM, OATP1A2) or pyranine (10 μM for OATP1B1 or 20 μM for OATP1B3 and OATP2B1). After 10 min (OATP1A2), 15 min (OATP1B1 and OATP2B1), or 30 min (OATP1B3) incubation, the transport was terminated by washing the cells three times with ice-cold PBS. Regarding the individual OATP assays, we applied different incubation times to keep the substrate uptake in the linear range, , avoiding substrate depletion or saturation effects, as it is indispensable for the accurate assessment. Using an Enspire plate reader (PerkinElmer, Waltham, MA), the fluorescence was measured at excitation/emission wavelengths of 460/510 nm (pyranine) or 586/605 nm (SR101).
(§3) OATP-mediated transport was obtained by subtracting the activity of the mock control cells from the activity of the OATP-expressing cells. The transport activity (%) of the OATPs was calculated by comparing the fluorescence signal obtained in the absence of the compounds tested (set to 100%).

[2] = target: T2, CYP1A2 (Homo sapiens, UniProt P05177); settings: each 20 μM; 0.2 vol % DMSO
T2 sequence (P05177 1-516): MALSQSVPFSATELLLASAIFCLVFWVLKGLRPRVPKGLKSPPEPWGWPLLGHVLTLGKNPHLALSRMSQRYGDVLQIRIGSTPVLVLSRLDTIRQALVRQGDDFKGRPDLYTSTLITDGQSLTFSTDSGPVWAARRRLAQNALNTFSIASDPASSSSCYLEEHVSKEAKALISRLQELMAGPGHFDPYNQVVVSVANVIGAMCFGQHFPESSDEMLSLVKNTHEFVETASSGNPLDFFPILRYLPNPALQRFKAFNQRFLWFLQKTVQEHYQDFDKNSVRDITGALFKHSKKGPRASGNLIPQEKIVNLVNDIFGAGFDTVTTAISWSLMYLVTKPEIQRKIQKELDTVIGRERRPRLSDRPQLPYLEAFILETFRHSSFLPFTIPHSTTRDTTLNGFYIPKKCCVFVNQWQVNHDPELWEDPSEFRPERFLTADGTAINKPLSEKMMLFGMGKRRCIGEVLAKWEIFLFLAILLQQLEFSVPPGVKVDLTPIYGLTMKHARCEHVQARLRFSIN
Procedure: We applied 10 mM stock solutions of mycotoxins (dissolved in DMSO), and the samples (including controls and positive controls) contained uniformly 0.2 vol % DMSO.

[3] = target: T3, OATP2B1 (Homo sapiens, UniProt O94956); assay: OATP2B1-mediated pyranine uptake in overexpressing A431 cells; type: cell-based
T3 construct: expressed in transfected cells; host or cells: A431
T3 sequence (O94956 1-709): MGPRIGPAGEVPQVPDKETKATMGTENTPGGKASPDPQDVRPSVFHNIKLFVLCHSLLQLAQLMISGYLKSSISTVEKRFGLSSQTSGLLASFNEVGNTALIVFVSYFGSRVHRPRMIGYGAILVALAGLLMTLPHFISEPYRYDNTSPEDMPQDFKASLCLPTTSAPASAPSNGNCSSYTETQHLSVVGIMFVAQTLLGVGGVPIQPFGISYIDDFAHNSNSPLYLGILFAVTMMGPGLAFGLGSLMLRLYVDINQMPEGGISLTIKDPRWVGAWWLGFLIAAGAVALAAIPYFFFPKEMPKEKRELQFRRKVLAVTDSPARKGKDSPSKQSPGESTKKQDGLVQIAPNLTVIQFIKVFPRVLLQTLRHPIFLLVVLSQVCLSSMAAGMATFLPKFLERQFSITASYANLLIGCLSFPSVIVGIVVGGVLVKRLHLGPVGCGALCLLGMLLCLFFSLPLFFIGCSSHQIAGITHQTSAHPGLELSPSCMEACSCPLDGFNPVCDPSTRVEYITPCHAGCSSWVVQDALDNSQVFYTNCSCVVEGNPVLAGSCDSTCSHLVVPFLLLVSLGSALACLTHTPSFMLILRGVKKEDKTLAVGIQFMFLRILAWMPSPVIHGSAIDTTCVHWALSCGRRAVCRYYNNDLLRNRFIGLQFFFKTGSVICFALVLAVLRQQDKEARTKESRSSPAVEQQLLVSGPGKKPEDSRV
Procedure: as §1, §2, §3

[4] = 20 μM, pyranine substrate, A431 cells

| Structure (SMILES) | IC50 ([1]; pyranine 10 μM, 15 min, A431 cells, read-out: IC50 for OATP1B1) [nM] | inhibition of CYP1A2 activity [2] | IC50 ([3]; pyranine 20 μM, 15 min, A431 cells, read-out: IC50 for OATP2B1) [nM] | IC50 [1] [nM] | decrease in OATP1B1 transport activity [1, 4] | stronger inhibition on OATP1B1 compared to ZEN ([1]; ratio of IC50 values vs ZEN) | IC50 [3] [nM] | effect on OATP2B1-mediated dye uptake ([3]; 5 μM, pyranine substrate) | decrease in OATP2B1 transport activity [3, 4] | stronger inhibition on OATP2B1 compared to ZEN ([3]; ratio of IC50 values vs ZEN) |
| --- | --- | --- | --- | --- | --- | --- | --- | --- | --- | --- |
| C[C@H]1CCCC(=O)CCC/C=C/c2cc(O[C@@H]3O[C@H](C(=O)O)[C@@H](O)[C@H](O)[C@H]3O)cc(O)c2C(=O)O1 [Z14GA, Zearalenone-14-glucuronide] | > 20000 | no effects | 1100 |  |  |  |  |  |  |  |
| C[C@H]1CCCC(=O)CCC/C=C/c2cc(OS(=O)(=O)O)cc(O)c2C(=O)O1 [Z14S, zearalenone-14-sulfate] |  | did not influence |  | 270 | 80–100% | more than 30 fold | 340 | completely abolished | 80–100% | approximately 7 fold |
